For data set [1], the system named is MOLM14 cells. Briefly: Proliferation assay (spheroid assay) MOLM14. In kind it is cell-based, human. The following applies: 8 days, MLL-AF9 cell line; read-out: spheroid assay_MOLM14 IC50. The protocol:
(§1) The anti-proliferative effect of menin/MLL protein/protein interaction inhibitor test compounds was assessed in human leukemia cell lines. The cell line MOLM14 harbors a MLL translocation and expresses the MLL fusion protein MLL-AF9, respectively, as well as the wildtype protein from the second allele. OCI-AML3 cells that carry the NPM1c gene mutation were also tested. […] KO-52 was used as a control cell line containing two MLL (KMT2A) wildtype alleles in order to exclude compounds that display general cytotoxic effects.
(§2) MOLM14 cells were cultured in RPMI-1640 (Sigma Aldrich) supplemented with 10% heat-inactivated fetal bovine serum (HyClone), 2 mM L-glutamine (Sigma Aldrich) and 50 μg/ml gentamycin (Gibco). […]
(§3) In order to assess the anti-proliferative effects, 200 MOLM14 cells, 200 OCI-AML3 cells or 300 KO-52 cells were seeded in 200 μl media per well in 96-well round bottom, ultra-low attachment plates (Costar, catalogue number 7007). […] Spheroid like growth was measured in real-time by live-cell imaging (IncuCyteZOOM, Essenbio, 4× objective) acquiring images at day 8. Confluence (%) as a measure of spheroid size was determined using an integrated analysis tool.
(§4) In order to determine the effect of the test compounds over time, the confluence in each well as a measure of spheroid size, was calculated. […]
(§5) Absolute IC50 values were calculated as percent change in confluence as follows: […]

Data set [2] concerns OCI-AML3 cells. Kind of data set: Proliferation assay (spheroid assay) OCI-AML3. The class given is cell-based, human. The following applies: 8 days, NPM1c mutated cell line; read-out: spheroid assay_OCI-AML3 IC50. Here is the method: as §1, §2, §3, §4, §5
Data set [3] can be described thus: Dynamic vapor sorption (DVS) moisture sorption analysis. In kind it is physicochemical. Conditions: after 2 cycles of vapor adsorption/desorption. Here is the method: The moisture sorption analysis (DVS) was performed using a ProUmid GmbH & Co. KG Vsorp Enhanced dynamic vapor sorption apparatus. The moisture profile was evaluated by monitoring vapor adsorption/desorption over the range of 0 to 90% relative humidity at 25° C. The sample weight equilibrium criteria were set at ≤0.010% change in 45 min with minimum and maximum time of acclimation at 50 min and 120 min, respectively. The moisture profile consisted of 2 cycles of vapor adsorption/desorption.

Data set [4] deals with MEIS1 mRNA expression. Kind of data set: MEIS1 mRNA expression assay (Quantigene Singleplex) in MOLM14 cells. The class given is cell-based, human. Conditions: 48 hours incubation. Here is the method:
MEIS1 mRNA expression upon treatment of compound was examined by Quantigene Singleplex assay (Thermo Fisher Scientific). This technology allows for direct quantification of mRNA targets using probes hybridizing to defined target sequences of interest and the signal is detected using a Multimode plate reader Envision (PerkinElmer). The MOLM14 cell line was used for this experiment. Cells were plated in 96-well plates at 3,750 cells/well in the presence of increasing concentrations of compounds. After incubation of 48 hours with compounds, cells were lysed in lysis buffer and incubated for 45 minutes at 55° C. Cell lysates were mixed with human MEIS1 specific capture probe or human RPL28 (Ribosomal Protein L28) specific probe as a normalization control, as well as blocking probes. Cell lysates were then transferred to the custom assay hybridization plate (Thermo Fisher Scientific) and incubated for 18 to 22 hours at 55° C. Subsequently, plates were washed to remove unbound materials followed by sequential addition of preamplifiers, amplifiers, and label probe. Signals (=gene counts) were measured with a Multimode plate reader Envision. IC50s were calculated by dose-response modelling using appropriate software. […] Fold changes were calculated by dividing the normalized values for the treated samples by the normalized values for the DMSO treated sample. […]

The target of data set [5] is Menin/MLL (terbium chelate-labeled menin, FITC-MBM1 peptide) (Homo sapiens (Human), UniProt O00255). Kind of data set: Menin/MLL homogenous time-resolved fluorescence (HTRF) assay. The class given is binding. The following applies: 30 min incubation of compound with labeled menin. Here is the method:
To an untreated, white 384-well microtiter plate was added 40 nL 200× test compound in DMSO and 4 μL 2× terbium chelate-labeled menin (vide infra for preparation) in assay buffer (40 mM Tris·HCl, pH 7.5, 50 mM NaCl, 1 mM DTT (dithiothreitol) and 0.05% Pluronic F-127). After incubation of test compound and terbium chelate-labeled menin for 30 min at ambient temperature, 4 μL 2×FITC-MBM1 peptide (FITC-β-alanine-[…]-NH2) (“FITC” means fluorescein isothiocyanate) in assay buffer was added, the microtiter plate centrifuged at 1000 rpm for 1 min and the assay mixtures incubated for 15 min at ambient temperature. The relative amount of menin-FITC-MBM1 complex present in an assay mixture is determined by measuring the homogenous time-resolved fluorescence (HTRF) of the terbium/FITC donor/acceptor fluorphore pair using an EnVision microplate reader (ex. 337 nm/terbium em. 490 nm/FITC em. 520 nm) at ambient temperature. The degree of fluorescence resonance energy transfer (the HTRF value) is expressed as the ratio of the fluorescence emission intensities of the FITC and terbium fluorophores (F^em 520 nm/F^em 490 nm). […]
Compound potencies were determined by first calculating % inhibition at each compound concentration according to equation 1: […]
A general note: TR-FRET usually uses a lanthanide donor and a delayed reading to cut background.

For data set [6], the system named is KO-52 cells. Briefly: Proliferation assay (spheroid assay) KO-52 control cell line. In kind it is cell-based, human. The following applies: 8 days, MLL wildtype control cell line; read-out: spheroid assay_KO-52 IC50. Here is the method:
as §1, §2, §3, §4, §5

Sequence of Menin/MLL (terbium chelate-labeled menin, FITC-MBM1 peptide) (O00255 other isoform, or with tags, fused parts or gaps): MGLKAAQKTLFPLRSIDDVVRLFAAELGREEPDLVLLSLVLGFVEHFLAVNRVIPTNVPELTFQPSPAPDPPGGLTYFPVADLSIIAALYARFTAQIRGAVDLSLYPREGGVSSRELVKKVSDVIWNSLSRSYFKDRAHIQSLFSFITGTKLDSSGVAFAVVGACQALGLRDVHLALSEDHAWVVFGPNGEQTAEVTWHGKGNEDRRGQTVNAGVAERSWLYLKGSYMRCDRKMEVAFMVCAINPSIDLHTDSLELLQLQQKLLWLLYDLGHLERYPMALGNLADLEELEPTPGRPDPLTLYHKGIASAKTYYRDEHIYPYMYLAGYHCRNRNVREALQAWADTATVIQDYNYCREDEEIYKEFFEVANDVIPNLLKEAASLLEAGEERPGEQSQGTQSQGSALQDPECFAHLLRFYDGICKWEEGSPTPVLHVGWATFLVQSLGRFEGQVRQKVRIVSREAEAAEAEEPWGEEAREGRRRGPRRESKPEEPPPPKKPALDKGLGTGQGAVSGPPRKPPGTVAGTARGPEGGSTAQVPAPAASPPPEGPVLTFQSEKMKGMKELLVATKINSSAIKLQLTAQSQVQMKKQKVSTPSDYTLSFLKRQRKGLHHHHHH

On to `CC(=O)N1CCC(CN2CC[C@@H](Cc3cn(-c4ccc(F)cc4C(=O)N(C)C(C)C)c4cncc(C)c34)C2)CC1` [Compound 51a], for which the IC50 (as a rule, the midpoint of a concentration-inhibition curve) in data set [1] was determined as 13 nM; in data set [2] it was 70 nM; in data set [4], 11 nM; in data set [5] it was 0.024 nM; in data set [6] it was 1200 nM. The “solid-state form stability after DVS test (XRPD)” value in data set [3] is reported as “No indication of a solid-state form change was observed”.

For the origin of these results see patent publication US20250197392A1, “CRYSTALLINE FORMS OF AN INHIBITOR OF THE MENIN/MLL INTERACTION” (JANSSEN PHARMACEUTICA NV, priority 2022, published 2025).
